Laboratory results as given in patent publication US20260217735A1, “HETEROCYCLES AND USES THEREOF” (Kumquat Biosciences Inc., priority 2023, published 2026).
pIC50: −log10 of the molar value.

Columns and labels:
[1] = molecular target: T1, KRAS G12D (Homo sapiens, UniProt P01116, G12D); assay: HTRF assay, KRAS G12D interaction with SOS1; assay type: biochemical; conditions: bins <500 nM / 500 nM to 1000 nM, read-out: Inhibition of KRAS G12D (IC50)
T1 construct: made in house; host or cells: E. coli, e.g. BL21 (DE3)

[2] = molecular target: T2, KRAS WT (Homo sapiens, UniProt P01116); assay: HTRF assay, wildtype KRAS interaction with SOS1; assay type: biochemical; conditions: bins <500 nM / 500 nM to 1000 nM, read-out: Inhibition of KRAS WT (IC50)
T2 construct: made in house; host or cells: E. coli, e.g. BL21 (DE3)

[3] = molecular target: T3, KRAS G12V (Homo sapiens, UniProt P01116, G12V); assay: HTRF assay, KRAS G12V interaction with SOS1; assay type: biochemical; conditions: bins <500 nM / 500 nM to 1000 nM, read-out: Inhibition of KRAS G12V (IC50)
T3 construct: made in house; host or cells: E. coli, e.g. BL21 (DE3)

[4] = molecular target: T4, KRAS G12S (Homo sapiens, UniProt P01116, G12S); assay: HTRF assay, KRAS G12S interaction with SOS1; assay type: biochemical; conditions: bins <500 nM / 500 nM to 1000 nM, read-out: Inhibition of KRAS G12S (IC50)
T4 construct: made in house; host or cells: E. coli, e.g. BL21 (DE3)

[5] = test system: MiaPaca2 cells; assay: Ras cellular assay, growth of cells with K-Ras G12C mutation; assay type: cell-based; conditions: Homo sapiens, MIA PaCa-2; cell proliferation assay; bins ≤500 nM / >500 nM; read-out: Inhibition of MiaPaca2 Cells (IC50)
Method in brief: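 MIA PaCa-2 cells (K-Ras G12C, about 125-150 cells/well) grown in 0.25% soft agar over a 0.6% agar base, compound added on day 2 at 0.3% final DMSO. Growth read on day 10 by Cell Titer 96 AQueous absorbance (490 nm, reference 660 nm) against time-zero wells; IC50 from four-parameter fit.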

T1 sequence (P01116 1-188 isoform P01116-2 G12D): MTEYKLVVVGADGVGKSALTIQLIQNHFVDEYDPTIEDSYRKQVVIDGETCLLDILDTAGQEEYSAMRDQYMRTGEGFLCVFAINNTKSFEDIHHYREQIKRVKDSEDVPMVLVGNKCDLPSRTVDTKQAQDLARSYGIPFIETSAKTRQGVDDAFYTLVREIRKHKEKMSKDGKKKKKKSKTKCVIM
T4 sequence (P01116 1-188 isoform P01116-2 G12S): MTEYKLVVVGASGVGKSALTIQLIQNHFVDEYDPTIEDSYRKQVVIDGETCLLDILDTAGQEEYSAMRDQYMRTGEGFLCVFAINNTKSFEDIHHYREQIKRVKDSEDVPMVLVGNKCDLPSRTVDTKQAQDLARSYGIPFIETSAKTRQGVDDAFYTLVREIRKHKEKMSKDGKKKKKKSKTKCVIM
T2 sequence (P01116 1-188 isoform P01116-2): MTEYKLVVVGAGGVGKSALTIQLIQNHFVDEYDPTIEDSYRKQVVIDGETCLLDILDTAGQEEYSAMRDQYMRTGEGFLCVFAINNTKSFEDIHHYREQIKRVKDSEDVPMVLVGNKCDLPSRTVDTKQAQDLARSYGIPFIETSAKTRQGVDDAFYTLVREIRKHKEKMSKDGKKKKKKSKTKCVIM
T3 sequence (P01116 1-188 isoform P01116-2 G12V): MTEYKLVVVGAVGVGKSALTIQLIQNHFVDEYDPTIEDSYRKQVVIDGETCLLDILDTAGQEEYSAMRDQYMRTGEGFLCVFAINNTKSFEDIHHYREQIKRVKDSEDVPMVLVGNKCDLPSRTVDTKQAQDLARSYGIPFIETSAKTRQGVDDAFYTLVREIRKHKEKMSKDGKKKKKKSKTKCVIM

Structure (SMILES): CC1C(N(C)c2nc(OC[C@@]34CCCN3C[C@H](F)C4)nc3c(F)c(-c4ccc(F)c5sc(N)c(C#N)c45)c(Cl)cc23)CCCN1C(=O)n1ccnc1 (stereo partly drawn) [Compound 187, 4-(4-((1-(1H-imidazole-1-carbonyl)-2-methylpiperidin-3-yl)(methyl)amino)-6-chloro-8-fluoro-2-(((2R,7aS)-2-fluorotetrahydro-1H-pyrrolizin-7a(5H)-yl)methoxy)quinazolin-7-yl)-2-amino-7-fluorobenzo[b]thiophene-3-carbonitrile]
- pIC50 [1]: > 6.30
- pIC50 [2]: > 6.30
- pIC50 [3]: > 6.30
- pIC50 [4]: > 6.30
- pIC50 [5]: ≥ 6.30

Structure (SMILES): CCN(c1nc(OC[C@@]23CCCN2C[C@H](F)C3)nc2c(F)c(-c3ccc(F)c4sc(N)c(C#N)c34)c(Cl)cc12)[C@@H]1CCN(C(=O)n2ccnc2C#N)[C@@H]1C [Compound 188, 1-((2R,3R)-3-((7-(2-amino-3-cyano-7-fluorobenzo[b]thiophen-4-yl)-6-chloro-8-fluoro-2-(((2R,7aS)-2-fluorotetrahydro-1H-pyrrolizin-7a(5H)-yl)methoxy)quinazolin-4-yl)(ethyl)amino)-2-methylpyrrolidine-1-carbonyl)-1H-imidazole-2-carbonitrile]
- pIC50 [1]: > 6.30
- pIC50 [2]: > 6.30
- pIC50 [3]: > 6.30
- pIC50 [4]: > 6.30
- pIC50 [5]: ≥ 6.30

Structure (SMILES): Cc1nc(C#N)cn1C(=O)N1CC2CCN(c3nc(OC[C@@]45CCCN4C[C@H](F)C5)nc4c(F)c(-c5ccc(F)c6sc(N)c(C#N)c56)c(Cl)cc34)C2C1 (stereo partly drawn) [Compound 192, 1-(1-(7-(2-amino-3-cyano-7-fluorobenzo[b]thiophen-4-yl)-6-chloro-8-fluoro-2-(((2R,7aS)-2-fluorotetrahydro-1H-pyrrolizin-7a(5H)-yl)methoxy)quinazolin-4-yl)octahydropyrrolo[3,4-b]pyrrole-5-carbonyl)-2-methyl-1H-imidazole-4-carbonitrile]
- pIC50 [1]: > 6.30
- pIC50 [2]: > 6.30
- pIC50 [3]: > 6.30
- pIC50 [4]: > 6.30
- pIC50 [5]: ≥ 6.30

Structure (SMILES): C[C@@H]1[C@H](N(C)c2nc(OC[C@@]34CCCN3C[C@H](F)C4)nc3c(F)c(-c4ccc(F)c5sc(N)c(C#N)c45)c(Cl)cc23)CCN1C(=O)n1ccnc1C(F)(F)F [Compound 194, 2-amino-4-(6-chloro-8-fluoro-2-(((2R,7aS)-2-fluorotetrahydro-1H-pyrrolizin-7a(5H)-yl)methoxy)-4-(methyl((2R,3R)-2-methyl-1-(2-(trifluoromethyl)-1H-imidazole-1-carbonyl)pyrrolidin-3-yl)amino)quinazolin-7-yl)-7-fluorobenzo[b]thiophene-3-carbonitrile]
- pIC50 [1]: > 6.30
- pIC50 [2]: > 6.30
- pIC50 [3]: > 6.30
- pIC50 [4]: > 6.30
- pIC50 [5]: ≥ 6.30

Structure (SMILES): CCN(c1nc(OC[C@@]23CCCN2C[C@H](F)C3)nc2c(F)c(-c3cccc4sc(N)c(C#N)c34)c(Cl)cc12)[C@@H]1CCN(C(=O)n2cc(C)nc2C)[C@@H]1C [Compound 195, 2-amino-4-(6-chloro-4-(((2R,3R)-1-(2,4-dimethyl-1H-imidazole-1-carbonyl)-2-methylpyrrolidin-3-yl)(ethyl)amino)-8-fluoro-2-(((2R,7aS)-2-fluorotetrahydro-1H-pyrrolizin-7a(5H)-yl)methoxy)quinazolin-7-yl)benzo[b]thiophene-3-carbonitrile]
- pIC50 [1]: > 6.30
- pIC50 [2]: > 6.30
- pIC50 [3]: > 6.30
- pIC50 [4]: > 6.30
- pIC50 [5]: ≥ 6.30

Structure (SMILES): CCN(c1nc(OC[C@@]23CCCN2C[C@H](F)C3)nc2c(F)c(-c3cc(N)c(F)c(C)c3C(F)(F)F)ncc12)[C@@H]1CCN(C(=O)n2cc(C)nc2C)[C@@H]1C [Compound 196, ((2R,3R)-3-((7-(5-amino-4-fluoro-3-methyl-2-(trifluoromethyl)phenyl)-8-fluoro-2-(((2R,7aS)-2-fluorotetrahydro-1H-pyrrolizin-7a(5H)-yl)methoxy)pyrido[4,3-d]pyrimidin-4-yl)(ethyl)amino)-2-methylpyrrolidin-1-yl)(2,4-dimethyl-1H-imidazol-1-yl)methanone]
- pIC50 [1]: 6.00 to 6.30
- pIC50 [2]: > 6.30
- pIC50 [3]: > 6.30
- pIC50 [4]: > 6.30
- pIC50 [5]: ≥ 6.30

Structure (SMILES): CC[C@@H]1[C@H](N(C)c2nc(OC[C@@]34CCCN3C[C@H](F)C4)nc3c(F)c(-c4ccc(F)c5sc(N)c(C#N)c45)c(Cl)cc23)CCN1C(=O)n1ccnc1 [Compound 198, 2-amino-4-(6-chloro-4-(((2R,3R)-2-ethyl-1-(1H-imidazole-1-carbonyl)pyrrolidin-3-yl)(methyl)amino)-8-fluoro-2-(((2R,7aS)-2-fluorotetrahydro-1H-pyrrolizin-7a(5H)-yl)methoxy)quinazolin-7-yl)-7-fluorobenzo[b]thiophene-3-carbonitrile]
- pIC50 [1]: > 6.30
- pIC50 [2]: > 6.30
- pIC50 [3]: > 6.30
- pIC50 [4]: > 6.30
- pIC50 [5]: ≥ 6.30

Structure (SMILES): C[C@@H]1[C@H](N(C)c2nc(OC[C@@]34CCCN3C[C@H](F)C4)nc3c(F)c(-c4ccc(F)c5sc(N)c(C#N)c45)c(Cl)cc23)CCN1C(=O)n1cnc(C#N)c1 [Compound 199, 1-((2R,3R)-3-((7-(2-amino-3-cyano-7-fluorobenzo[b]thiophen-4-yl)-6-chloro-8-fluoro-2-(((2R,7aS)-2-fluorotetrahydro-1H-pyrrolizin-7a(5H)-yl)methoxy)quinazolin-4-yl)(methyl)amino)-2-methylpyrrolidine-1-carbonyl)-1H-imidazole-4-carbonitrile]
- pIC50 [1]: > 6.30
- pIC50 [2]: > 6.30
- pIC50 [3]: > 6.30
- pIC50 [4]: > 6.30
- pIC50 [5]: ≥ 6.30

Structure (SMILES): C[C@@H]1[C@H](N(C)c2nc(OC[C@@]34CCCN3C[C@H](F)C4)nc3c(F)c(-c4ccc(F)c5sc(N)c(C#N)c45)c(C(F)(F)F)cc23)CCN1C(=O)n1ccnc1 [Compound 200, 4-(4-(((2R,3R)-1-(1H-imidazole-1-carbonyl)-2-methylpyrrolidin-3-yl)(methyl)amino)-8-fluoro-2-(((2R,7aS)-2-fluorotetrahydro-1H-pyrrolizin-7a(5H)-yl)methoxy)-6-(trifluoromethyl)quinazolin-7-yl)-2-amino-7-fluorobenzo[b]thiophene-3-carbonitrile]
- pIC50 [1]: > 6.30
- pIC50 [2]: > 6.30
- pIC50 [3]: > 6.30
- pIC50 [4]: > 6.30
- pIC50 [5]: ≥ 6.30

Structure (SMILES): C[C@@H]1[C@H](N(C)c2nc(OC[C@@]34CCCN3C[C@H](F)C4)nc3c(F)c(-c4ccc(F)c5sc(N)c(C#N)c45)c(Cl)cc23)CCN1C(=O)n1ccnc1C1CC1 [Compound 201, 2-amino-4-(6-chloro-4-(((2R,3R)-1-(2-cyclopropyl-1H-imidazole-1-carbonyl)-2-methylpyrrolidin-3-yl)(methyl)amino)-8-fluoro-2-(((2R,7aS)-2-fluorotetrahydro-1H-pyrrolizin-7a(5H)-yl)methoxy)quinazolin-7-yl)-7-fluorobenzo[b]thiophene-3-carbonitrile]
- pIC50 [1]: > 6.30
- pIC50 [2]: > 6.30
- pIC50 [3]: > 6.30
- pIC50 [4]: > 6.30
- pIC50 [5]: ≥ 6.30

Structure (SMILES): Cc1c(C#N)ncn1C(=O)N1C[C@]2(CC[C@H](C)N(c3nc(OC[C@@]45CCCN4C[C@H](F)C5)nc4c(F)c(-c5ccc(F)c6sc(N)c(C#N)c56)c(Cl)cc34)C2)[C@H]1C1(C)CC1 [Compound 202, 1-((1R,4R,7S)-6-(7-(2-amino-3-cyano-7-fluorobenzo[b]thiophen-4-yl)-6-chloro-8-fluoro-2-(((2R,7aS)-2-fluorotetrahydro-1H-pyrrolizin-7a(5H)-yl)methoxy)quinazolin-4-yl)-7-methyl-1-(1-methylcyclopropyl)-2,6-diazaspiro[3.5]nonane-2-carbonyl)-5-methyl-1H-imidazole-4-carbonitrile]
- pIC50 [1]: > 6.30
- pIC50 [2]: > 6.30
- pIC50 [3]: > 6.30
- pIC50 [4]: > 6.30
- pIC50 [5]: ≥ 6.30

Structure (SMILES): CCN(c1nc(OCC2(CN3CC4CCC(C3)O4)CC2)nc2c(F)c(-c3ccc(F)c4sc(N)c(C#N)c34)c(C(F)(F)F)cc12)[C@@H]1CCN(C(=O)n2cnc(Cl)n2)[C@@H]1C [Compound 204, (4S)-4-(2-((1-((8-oxa-3-azabicyclo[3.2.1]octan-3-yl)methyl)cyclopropyl)methoxy)-4-(((2R,3R)-1-(3-chloro-1H-1,2,4-triazole-1-carbonyl)-2-methylpyrrolidin-3-yl)(ethyl)amino)-8-fluoro-6-(trifluoromethyl)quinazolin-7-yl)-2-amino-7-fluorobenzo[b]thiophene-3-carbonitrile]
- pIC50 [1]: > 6.30
- pIC50 [2]: > 6.30
- pIC50 [3]: > 6.30
- pIC50 [4]: > 6.30
- pIC50 [5]: ≥ 6.30

Structure (SMILES): C[C@@H]1[C@H](N(C)c2nc(OC[C@@]34CCCN3C[C@H](F)C4)nc3c(F)c(-c4ccc(F)c5sc(N)c(C#N)c45)c(Cl)cc23)CCN1C(=O)n1ccc(C#N)c1 [Compound 205, 1-((2R,3R)-3-((7-(2-amino-3-cyano-7-fluorobenzo[b]thiophen-4-yl)-6-chloro-8-fluoro-2-(((2R,7aS)-2-fluorotetrahydro-1H-pyrrolizin-7a(5H)-yl)methoxy)quinazolin-4-yl)(methyl)amino)-2-methylpyrrolidine-1-carbonyl)-1H-pyrrole-3-carbonitrile]
- pIC50 [1]: > 6.30
- pIC50 [2]: > 6.30
- pIC50 [3]: > 6.30
- pIC50 [4]: > 6.30
- pIC50 [5]: ≥ 6.30
